Patent US10233184B2, “7-substituted sulfonimidoylpurinone compounds and derivatives for the treatment and prophylaxis of virus infection” (Hoffmann-La Roche Inc., priority 2016, dated 2019)
Values after ≈ are worked out from the molar mass of the structure shown. Like-named read-outs stand apart in the source and are kept apart here.

Legend:
[1] = biological target: T1, human TLR7 (Homo sapiens, UniProt Q9NYK1); assay: HEK293-Blue-hTLR-7 cells assay (SEAP reporter); format: cell-based; settings: for Ratio (EC50(prodrug)/EC50(active form)): EC50 of prodrug over EC50 of corresponding active form; for EC50: HEK293-Blue-hTLR-7 cells, SEAP reporter, 20 hrs
T1 sequence (Q9NYK1 27-1049): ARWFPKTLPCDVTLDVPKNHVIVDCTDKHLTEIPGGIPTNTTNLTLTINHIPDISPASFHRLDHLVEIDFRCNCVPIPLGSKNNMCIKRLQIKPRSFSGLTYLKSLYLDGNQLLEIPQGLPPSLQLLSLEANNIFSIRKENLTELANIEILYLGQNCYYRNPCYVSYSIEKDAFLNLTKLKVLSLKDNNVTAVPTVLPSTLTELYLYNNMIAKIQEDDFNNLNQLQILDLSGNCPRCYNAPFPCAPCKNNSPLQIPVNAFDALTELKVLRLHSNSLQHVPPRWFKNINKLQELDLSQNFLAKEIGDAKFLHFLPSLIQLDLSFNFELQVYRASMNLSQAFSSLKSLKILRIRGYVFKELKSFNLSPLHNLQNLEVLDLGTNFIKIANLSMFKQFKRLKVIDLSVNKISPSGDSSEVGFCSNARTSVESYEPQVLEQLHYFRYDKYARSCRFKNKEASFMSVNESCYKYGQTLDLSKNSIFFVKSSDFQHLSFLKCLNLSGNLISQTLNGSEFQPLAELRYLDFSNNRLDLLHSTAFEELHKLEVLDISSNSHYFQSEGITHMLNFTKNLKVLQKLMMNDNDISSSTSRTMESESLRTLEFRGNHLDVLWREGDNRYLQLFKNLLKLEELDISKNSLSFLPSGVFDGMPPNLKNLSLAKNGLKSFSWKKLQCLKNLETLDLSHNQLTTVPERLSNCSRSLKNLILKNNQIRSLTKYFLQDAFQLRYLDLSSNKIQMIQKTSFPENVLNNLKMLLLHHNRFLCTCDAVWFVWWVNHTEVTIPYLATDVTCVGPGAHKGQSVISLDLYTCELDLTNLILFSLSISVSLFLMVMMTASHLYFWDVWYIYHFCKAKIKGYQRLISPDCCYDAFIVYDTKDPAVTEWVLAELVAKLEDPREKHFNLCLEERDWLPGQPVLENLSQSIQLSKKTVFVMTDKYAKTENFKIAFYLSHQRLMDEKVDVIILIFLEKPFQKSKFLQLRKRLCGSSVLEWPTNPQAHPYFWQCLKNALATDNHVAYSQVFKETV
Description: HEK293-Blue-hTLR-7 Cells Assay:
A stable HEK293-Blue-hTLR-7 cell line was purchased from InvivoGen (Cat.#: hkb-htlr7, San Diego, Calif., USA). These cells were designed for studying the stimulation of human TLR7 by monitoring the activation of NF-κB. A SEAP (secreted embryonic alkaline phosphatase) reporter gene was placed under the control of the IFN-β minimal promoter fused to five NF-κB and AP-1-binding sites. The SEAP was induced by activating NF-κB and AP-1 via stimulating HEK-Blue hTLR7 cells with TLR7 ligands. Therefore the reporter expression was regulated by the NF-κB promoter upon stimulation of human TLR7 for 20 hrs. The cell culture supernatant SEAP reporter activity was determined using QUANTI-Blue™ kit (Cat.#: rep-qbl, Invivogen, San Diego, Calif., USA) at a wavelength of 640 nm, a detection medium that turns purple or blue in the presence of alkaline phosphatase.
HEK293-Blue-hTLR7 cells were incubated at a density of 250,000˜450,000 cells/mL in a volume of 180 μL in a 96-well plate in Dulbecco's Modified Eagle's medium (DMEM) containing 4.5 g/L glucose, 50 U/mL penicillin, […], […], 2 mM L-glutamine, 10% (V/V) heat-inactivated fetal bovine serum for 24 hrs. Then the HEK293-Blue-hTLR-7 cells were incubated with addition of 20 μL test compound in a serial dilution in the presence of final DMSO at 1% and perform incubation under 37° C. in a CO2 incubator for 20 hrs. Then 20 μL of the supernatant from each well was incubated with 180 μL Quanti-blue substrate solution at 37° C. for 2 hrs and the absorbance was read at 620˜655 nm using a spectrophotometer. The signalling pathway that TLR7 activation leads to downstream NF-κB activation has been widely accepted, and therefore similar reporter assay was also widely used for evaluating TLR7 agonist (Tsuneyasu Kaisho and Takashi Tanaka, Trends in Immunology, Volume 29, Issue 7, July 2008, […]; Hiroaki Hemmi et al, Nature Immunology 3, 196-200 (2002)).
The Compounds and Examples of the present invention were tested in HEK293-hTLR-7 assay for their TLR7 agonism activity as described herein and results are listed in Table 1. […] The calculated ratio of EC50(prodrug)/EC50(active form) were within the range from 32 to about 7600.

[2] = LYSA solubility study; format: physicochemical; settings: for solubility thermodynamic: phosphate buffer, pH 6.5, aqueous buffer, thermodynamic from solid; for LYSA of Prodrugs: aqueous solubility, 0.05M phosphate buffer pH 6.5
Procedure: LYSA study is used to determine the aqueous solubility of tested compounds. Samples were prepared in duplicate from 10 mM DMSO stock solution. After evaporation of DMSO with a centrifugal vacuum evaporator, the compounds were dissolved in 0.05M phosphate buffer (pH 6.5), stirred for one hour and shaken for two hours. After one night, the solutions were filtered using a microtiter filter plate. Then the filtrate and its 1/10 dilution were analyzed by HPLC-UV. […] The results were in μg/mL. In case the percentage of sample measured in solution after evaporation divided by the calculated maximum of sample amount was bigger than 80%, the solubility was reported as bigger than this value.

[3] = prodrug, read-out: HEK293-hTLR-7 EC50 (Prodrug)
[4] = 0.05M phosphate buffer pH 6.5, read-out: LYSA of Prodrugs

| Compound | Ratio (EC50(prodrug)/EC50(active form)) [1] | EC50 [1, 3] [µM] | solubility thermodynamic [2, 4] [µg/mL] | LYSA of Prodrugs [2] [µg/mL] | EC50 ([1]; active form, read-out: HEK293-hTLR-7 EC50 (Active form)) [µM] | solubility thermodynamic ([2]; 0.05M phosphate buffer pH 6.5, read-out: LYSA of Active Forms) [µg/mL] |
| --- | --- | --- | --- | --- | --- | --- |
| CCCS(=N)(=O)c1nc(N)c2c(n1)n(Cc1ccccc1)c(=O)n2C(=O)N(C)CC(C)C (stereo not shown) [Example 13, 6-Amino-9-benzyl-N-isobutyl-N-methyl-8-oxo-2-(propylsulfonimidoyl)purine-7-carboxamide] | 1030.8 | 67 | 155 (≈ 337 µM) | – | – | – |
| CCCS(=N)(=O)c1nc(N)c2c(n1)n(Cc1ccccc1)c(=O)n2C(=O)N(C)CCOC (stereo not shown) [Example 2, 6-Amino-9-benzyl-N-(2-methoxyethyl)-N-methyl-8-oxo-2-(propylsulfonimidoyl)purine-7-carboxamide] | 372.1 | 32 | 615 (≈ 1330 µM) | – | – | – |
| CCN(C)C(=O)n1c(=O)n(Cc2ccc(F)cc2)c2nc(S(=N)(=O)CC)nc(N)c21 (single isomer, unassigned) [Example 46-B] | – | 45.7 | – | >580 | – | – |
| CCCN(C)C(=O)n1c(=O)n(Cc2ccccc2)c2nc(S(=N)(=O)CCC)nc(N)c21 (stereo not shown) [Example 1, 6-Amino-9-benzyl-N-methyl-8-oxo-N-propyl-2-(propylsulfonimidoyl)purine-7-carboxamide] | 775.4 | 50.4 | 290 (≈ 651 µM) | – | – | – |
| CCCS(=N)(=O)c1nc(N)c2c(n1)n(Cc1ccccc1)c(=O)n2C(=O)N(CC)CCOC (stereo not shown) [Example 5, 6-Amino-9-benzyl-N-ethyl-N-(2-methoxyethyl)-8-oxo-2-(propylsulfonimidoyl)purine-7-carboxamide] | 630.8 | 41 | > 595 | – | – | – |
| CCCN(C)C(=O)n1c(=O)n(Cc2ccc(C)cc2)c2nc([S@@](=N)(=O)CCC)nc(N)c21 [Example 36-A, 6-Amino-N-methyl-8-oxo-N-propyl-2[S(S)-propylsulfonimidoyl]-9-(p-tolylmethyl)purine-7-carboxamide] | 1673.7 | 31.8 | 168 (≈ 366 µM) | – | – | – |
| CCCN(C)C(=O)n1c(=O)n(Cc2ccc(F)cc2)c2nc([S@@](=N)(=O)CC)nc(N)c21 (single isomer, unassigned) [Example 45-B] | – | > 1000 | 420 (≈ 934 µM) | – | – | – |
| CC[S@](=N)(=O)c1nc(N)c2[nH]c(=O)n(Cc3ccc(C)cc3)c2n1 (single isomer, unassigned) [Compound 43e-B] | – | – | – | – | 0.035 | 13 (≈ 37.5 µM) |
| CCN(C)C(=O)n1c(=O)n(Cc2ccc(Cl)cc2)c2nc([S@@](=N)(=O)CC)nc(N)c21 (stereo in doubt) [Example 42-B, 6-Amino-9-[(4-chlorophenyl)methyl]-N-ethyl-2-[S(R)-ethylsulfonimidoyl]-N-methyl-8-oxo-purine-7-carboxamide] | 578.8 | 49.2 | – | 335 | – | – |
| CCCCN(C)C(=O)OCCN(C)C(=O)n1c(=O)n(Cc2ccccc2)c2nc(S(=N)(=O)CCC)nc(N)c21 (stereo not shown) [Example 29, 2-[[6-Amino-9-benzyl-8-oxo-2-(propylsulfonimidoyl)purine-7-carbonyl]-methyl-amino]ethyl N-butyl-N-methyl-carbamate] | 750.8 | 48.8 | 395 (≈ 705 µM) | – | – | – |
| CCCS(=N)(=O)c1nc(N)c2c(n1)n(Cc1ccccc1)c(=O)n2C(=O)N(C)CCC(=O)OCC (stereo not shown) [Example 15, Ethyl 3-[[6-amino-9-benzyl-8-oxo-2-(propylsulfonimidoyl)purine-7-carbonyl]-methyl-amino]propanoate] | 7600 | 494 | 405 (≈ 804 µM) | – | – | – |

Other lines, results leading:

| Ratio (EC50(prodrug)/EC50(active form)) [1] | EC50 [1, 3] [µM] | solubility thermodynamic [2, 4] [µg/mL] | LYSA of Prodrugs [2] [µg/mL] | EC50 ([1]; active form, read-out: HEK293-hTLR-7 EC50 (Active form)) [µM] | solubility thermodynamic ([2]; 0.05M phosphate buffer pH 6.5, read-out: LYSA of Active Forms) [µg/mL] | Compound |
| --- | --- | --- | --- | --- | --- | --- |
| 65.7 | 4.4 | – | >590 | – | – | CCCS(=N)(=O)c1nc(N)c2c(n1)n(Cc1ccccc1)c(=O)n2C(=O)N(C)CCOC (single isomer, unassigned) [Example 2-B] |
| 36.9 | 2.4 | 225 (≈ 460 µM) | – | – | – | CCCS(=N)(=O)c1nc(N)c2c(n1)n(Cc1ccccc1)c(=O)n2C(=O)N(C)CC(=O)OCC (stereo not shown) [Example 14, Ethyl 2-[[6-amino-9-benzyl-8-oxo-2-(propylsulfonimidoyl)purine-7-carbonyl]-methyl-amino]acetate] |
| 32.3 | 2.1 | 620 (≈ 1230 µM) | – | – | – | CCCS(=N)(=O)c1nc(N)c2c(n1)n(Cc1ccccc1)c(=O)n2C(=O)N(CCOC)CCOC (stereo not shown) [Example 8, 6-Amino-9-benzyl-N,N-bis(2-methoxyethyl)-8-oxo-2-(propylsulfonimidoyl)purine-7-carboxamide] |
| – | 13.1 | 128 (≈ 251 µM) | – | – | – | CCCN(C)C(=O)n1c(=O)n(Cc2ccc(Br)cc2)c2nc([S@@](=N)(=O)CC)nc(N)c21 (single isomer, unassigned) [Example 47-B] |
| 206.2 | 13.4 | > 690 | – | – | – | CCCS(=N)(=O)c1nc(N)c2c(n1)n(Cc1ccccc1)c(=O)n2C(=O)N(C)CCN(C)C(=O)OC (stereo not shown) [Example 26, Methyl N-[2-[[6-amino-9-benzyl-8-oxo-2-(propylsulfonimidoyl)purine-7-carbonyl]-methyl-amino]ethyl]-N-methyl-carbamate] |
| – | 15.1 | 240 (≈ 522 µM) | – | – | – | CCCN(CC)C(=O)n1c(=O)n(Cc2ccccc2)c2nc(S(=N)(=O)CCC)nc(N)c21 (stereo not shown) [Example 3, 6-Amino-9-benzyl-N-ethyl-8-oxo-N-propyl-2-(propylsulfonimidoyl)purine-7-carboxamide] |
| 295.4 | 19.2 | > 520 | – | – | – | CCCS(=N)(=O)c1nc(N)c2c(n1)n(Cc1ccccc1)c(=O)n2C(=O)N1CCC1 (stereo not shown) [Example 9, 6-Amino-7-(azetidine-1-carbonyl)-9-benzyl-2-(propylsulfonimidoyl)purin-8-one] |
| 372.3 | 24.2 | > 670 | – | – | – | CCCS(=N)(=O)c1nc(N)c2c(n1)n(Cc1ccccc1)c(=O)n2C(=O)N(C)CCN(C)C(C)=O (stereo not shown) [Example 25, N-[2-[Acetyl(methyl)amino]ethyl]-6-amino-9-benzyl-N-methyl-8-oxo-2-(propylsulfonimidoyl)purine-7-carboxamide] |
